Results taken from the kinase profiling compilation of Christmann-Franck et al. (2016).

Assays:
Assay in all cases: radiometric filter-binding kinase assay, Kinaseprofiler
[1] = tested on: EEF2K (human), O00418 [H23R]; details: compound 1.0 µM; ATP 15 µM
MAPK3 (human) = MAPK3 (human) (UniProt P27361); details: compound 1.0 µM; ATP 70 µM
RPS6KA3 KD1 KD2 (human) = RPS6KA3 KD1 KD2 (human) (UniProt P51812); details: compound 1.0 µM; ATP 10 µM
HIPK1 (human) = HIPK1 (human) (UniProt Q86Z02); details: compound 1.0 µM; ATP 45 µM
FGFR2 (human) = FGFR2 (human) (UniProt P21802); details: compound 1.0 µM; ATP 90 µM
NEK6 (human) = NEK6 (human) (UniProt Q9HC98); details: compound 1.0 µM; ATP 45 µM
[2] = tested on: BRSK2 (human), Q8IWQ3 [S251I]; details: compound 1.0 µM; ATP 70 µM
SGK3 (human) = SGK3 (human) (UniProt Q96BR1); details: compound 1.0 µM; ATP 155 µM
FGFR3 (human) = FGFR3 (human) (UniProt P22607); details: compound 1.0 µM; ATP 15 µM
PRKCE (human) = PRKCE (human) (UniProt Q02156); details: compound 1.0 µM; ATP 45 µM
[3] = tested on: ABL1 (human), P00519 [T315I]; details: compound 1.0 µM; ATP 10 µM
CHUK (human) = CHUK (human) (UniProt O15111); details: compound 1.0 µM; ATP 10 µM
CDK7 CCNH MNAT1 (human) = CDK7 CCNH MNAT1 (human) (UniProt P50613+P51948+P51946); details: compound 1.0 µM; ATP 90 µM
HIPK3 (human) = HIPK3 (human) (UniProt Q9H422); details: compound 1.0 µM; ATP 15 µM
TSSK1B (human) = TSSK1B (human) (UniProt Q9BXA7); details: compound 1.0 µM; ATP 15 µM
MKNK2 (human) = MKNK2 (human) (UniProt Q9HBH9); details: compound 1.0 µM; ATP 120 µM
[4] = tested on: AKT1 (human), P31749 [S478G]; details: compound 1.0 µM; ATP 155 µM
MAP2K6 (human) = MAP2K6 (human) (UniProt P52564); details: compound 1.0 µM; ATP 10 µM
PRKD2 (human) = PRKD2 (human) (UniProt Q9BZL6); details: compound 1.0 µM; ATP 155 µM
BMX (human) = BMX (human) (UniProt P51813); details: compound 1.0 µM; ATP 45 µM
BTK (human) = BTK (human) (UniProt Q06187); details: compound 1.0 µM; ATP 200 µM
[5] = tested on: ROS1 (human), P08922 [V2262A]; details: compound 1.0 µM; ATP 200 µM
MINK1 (human) = MINK1 (human) (UniProt Q8N4C8); details: compound 1.0 µM; ATP 185 µM
CHEK1 (human) = CHEK1 (human) (UniProt O14757); details: compound 1.0 µM; ATP 90 µM
FGR (human) = FGR (human) (UniProt P09769); details: compound 1.0 µM; ATP 45 µM
[6] = tested on: SGK2 (human), Q9HBY8 [S416D]; details: compound 1.0 µM; ATP 15 µM
LCK (human) = LCK (human) (UniProt P06239); details: compound 1.0 µM; ATP 90 µM
DMPK (human) = DMPK (human) (UniProt Q09013); details: compound 1.0 µM; ATP 10 µM
PIM1 (human) = PIM1 (human) (UniProt P11309); details: compound 1.0 µM; ATP 90 µM
SRC (human) = SRC (human) (UniProt P12931); details: compound 1.0 µM; ATP 200 µM
WNK3 (human) = WNK3 (human) (UniProt Q9BYP7); details: compound 1.0 µM; ATP 200 µM
PRKD1 (human) = PRKD1 (human) (UniProt Q15139); details: compound 1.0 µM; ATP 45 µM
ERBB4 (human) = ERBB4 (human) (UniProt Q15303); details: compound 1.0 µM; ATP 15 µM
CAMK1 (human) = CAMK1 (human) (UniProt Q14012); details: compound 1.0 µM; ATP 200 µM
FRK (human) = FRK (human) (UniProt P42685); details: compound 1.0 µM; ATP 155 µM
DAPK1 (human) = DAPK1 (human) (UniProt P53355); details: compound 1.0 µM; ATP 70 µM
[7] = biological target: CSNK2A1 CSNK2B CSNK2A2 (human) (UniProt P19784+P68400+P67870); details: compound 1.0 µM; ATP 15 µM
CDK5 CDK5R1 p25 (human) = CDK5 CDK5R1 p25 (human) (UniProt Q00535+Q15078); details: compound 1.0 µM; ATP 15 µM
Sequence of CDK5 CDK5R1 p25 (human) (Q00535 whole entry, looked up): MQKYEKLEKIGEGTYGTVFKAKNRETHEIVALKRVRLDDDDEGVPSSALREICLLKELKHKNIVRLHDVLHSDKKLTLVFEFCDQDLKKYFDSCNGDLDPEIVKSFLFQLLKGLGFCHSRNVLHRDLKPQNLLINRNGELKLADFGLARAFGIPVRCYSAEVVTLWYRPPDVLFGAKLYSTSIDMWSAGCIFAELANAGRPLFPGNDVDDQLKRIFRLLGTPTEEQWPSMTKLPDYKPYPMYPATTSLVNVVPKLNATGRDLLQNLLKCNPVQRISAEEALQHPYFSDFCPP
Sequence of CDK5 CDK5R1 p25 (human) (Q15078 whole entry, looked up): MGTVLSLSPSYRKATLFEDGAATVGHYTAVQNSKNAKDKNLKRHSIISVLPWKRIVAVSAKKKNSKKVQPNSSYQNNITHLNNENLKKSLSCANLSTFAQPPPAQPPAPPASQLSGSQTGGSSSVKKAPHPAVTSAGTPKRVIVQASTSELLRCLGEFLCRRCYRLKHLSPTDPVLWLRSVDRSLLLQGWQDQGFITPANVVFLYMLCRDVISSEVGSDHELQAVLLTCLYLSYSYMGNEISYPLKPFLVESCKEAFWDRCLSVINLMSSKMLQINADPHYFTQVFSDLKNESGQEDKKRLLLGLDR

Sequence of SGK2 (human), Q9HBY8 [S416D] (Q9HBY8 whole entry, looked up, stated change not applied): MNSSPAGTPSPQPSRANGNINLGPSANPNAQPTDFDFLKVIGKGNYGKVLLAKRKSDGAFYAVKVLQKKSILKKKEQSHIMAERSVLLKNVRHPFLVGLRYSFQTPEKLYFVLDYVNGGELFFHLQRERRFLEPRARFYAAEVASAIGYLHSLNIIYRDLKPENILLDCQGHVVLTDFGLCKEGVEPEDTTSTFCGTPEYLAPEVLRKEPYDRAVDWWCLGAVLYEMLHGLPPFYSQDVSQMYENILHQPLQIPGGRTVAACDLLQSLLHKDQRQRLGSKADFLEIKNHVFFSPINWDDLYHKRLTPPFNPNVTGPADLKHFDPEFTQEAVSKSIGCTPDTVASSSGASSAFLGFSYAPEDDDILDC
Sequence of LCK (human) (P06239 whole entry, looked up): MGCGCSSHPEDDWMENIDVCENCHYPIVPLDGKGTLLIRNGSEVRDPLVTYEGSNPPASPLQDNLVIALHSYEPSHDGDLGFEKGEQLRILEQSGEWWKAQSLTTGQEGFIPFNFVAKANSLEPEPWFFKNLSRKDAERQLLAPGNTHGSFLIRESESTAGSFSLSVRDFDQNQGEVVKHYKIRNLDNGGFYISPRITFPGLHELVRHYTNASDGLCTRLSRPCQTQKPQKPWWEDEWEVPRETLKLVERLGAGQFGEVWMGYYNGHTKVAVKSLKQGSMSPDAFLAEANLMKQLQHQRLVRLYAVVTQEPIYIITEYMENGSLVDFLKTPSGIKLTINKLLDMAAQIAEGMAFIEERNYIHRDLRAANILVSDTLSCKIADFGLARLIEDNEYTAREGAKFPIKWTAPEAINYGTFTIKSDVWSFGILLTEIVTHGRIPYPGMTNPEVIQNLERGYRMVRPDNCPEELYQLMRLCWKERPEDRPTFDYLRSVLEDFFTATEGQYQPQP
Sequence of PIM1 (human) (P11309 whole entry, looked up): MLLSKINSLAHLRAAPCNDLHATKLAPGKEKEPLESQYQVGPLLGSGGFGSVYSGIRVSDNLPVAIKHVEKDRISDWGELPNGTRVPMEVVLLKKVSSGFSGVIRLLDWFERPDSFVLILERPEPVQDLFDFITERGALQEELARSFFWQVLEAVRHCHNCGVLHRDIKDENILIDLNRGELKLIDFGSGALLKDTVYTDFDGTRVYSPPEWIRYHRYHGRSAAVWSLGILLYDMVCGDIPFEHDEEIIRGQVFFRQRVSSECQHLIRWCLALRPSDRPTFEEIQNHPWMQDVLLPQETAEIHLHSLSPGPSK
Sequence of SRC (human) (P12931 whole entry, looked up): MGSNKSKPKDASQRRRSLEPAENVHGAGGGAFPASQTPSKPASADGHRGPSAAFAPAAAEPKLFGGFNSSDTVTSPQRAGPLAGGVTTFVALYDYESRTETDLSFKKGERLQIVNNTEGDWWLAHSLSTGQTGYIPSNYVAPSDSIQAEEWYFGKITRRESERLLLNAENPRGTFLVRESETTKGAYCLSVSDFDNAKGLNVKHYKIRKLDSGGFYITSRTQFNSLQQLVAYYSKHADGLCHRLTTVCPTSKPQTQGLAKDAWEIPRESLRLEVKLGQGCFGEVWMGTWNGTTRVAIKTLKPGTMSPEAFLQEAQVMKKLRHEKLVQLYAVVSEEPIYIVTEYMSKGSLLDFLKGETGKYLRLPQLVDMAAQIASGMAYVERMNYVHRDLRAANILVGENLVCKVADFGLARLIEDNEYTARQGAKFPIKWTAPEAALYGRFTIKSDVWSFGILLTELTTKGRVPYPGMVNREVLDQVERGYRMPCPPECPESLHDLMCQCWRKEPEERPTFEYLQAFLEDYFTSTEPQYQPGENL
Sequence of ROS1 (human), P08922 [V2262A] (P08922 whole entry, looked up, stated change not applied): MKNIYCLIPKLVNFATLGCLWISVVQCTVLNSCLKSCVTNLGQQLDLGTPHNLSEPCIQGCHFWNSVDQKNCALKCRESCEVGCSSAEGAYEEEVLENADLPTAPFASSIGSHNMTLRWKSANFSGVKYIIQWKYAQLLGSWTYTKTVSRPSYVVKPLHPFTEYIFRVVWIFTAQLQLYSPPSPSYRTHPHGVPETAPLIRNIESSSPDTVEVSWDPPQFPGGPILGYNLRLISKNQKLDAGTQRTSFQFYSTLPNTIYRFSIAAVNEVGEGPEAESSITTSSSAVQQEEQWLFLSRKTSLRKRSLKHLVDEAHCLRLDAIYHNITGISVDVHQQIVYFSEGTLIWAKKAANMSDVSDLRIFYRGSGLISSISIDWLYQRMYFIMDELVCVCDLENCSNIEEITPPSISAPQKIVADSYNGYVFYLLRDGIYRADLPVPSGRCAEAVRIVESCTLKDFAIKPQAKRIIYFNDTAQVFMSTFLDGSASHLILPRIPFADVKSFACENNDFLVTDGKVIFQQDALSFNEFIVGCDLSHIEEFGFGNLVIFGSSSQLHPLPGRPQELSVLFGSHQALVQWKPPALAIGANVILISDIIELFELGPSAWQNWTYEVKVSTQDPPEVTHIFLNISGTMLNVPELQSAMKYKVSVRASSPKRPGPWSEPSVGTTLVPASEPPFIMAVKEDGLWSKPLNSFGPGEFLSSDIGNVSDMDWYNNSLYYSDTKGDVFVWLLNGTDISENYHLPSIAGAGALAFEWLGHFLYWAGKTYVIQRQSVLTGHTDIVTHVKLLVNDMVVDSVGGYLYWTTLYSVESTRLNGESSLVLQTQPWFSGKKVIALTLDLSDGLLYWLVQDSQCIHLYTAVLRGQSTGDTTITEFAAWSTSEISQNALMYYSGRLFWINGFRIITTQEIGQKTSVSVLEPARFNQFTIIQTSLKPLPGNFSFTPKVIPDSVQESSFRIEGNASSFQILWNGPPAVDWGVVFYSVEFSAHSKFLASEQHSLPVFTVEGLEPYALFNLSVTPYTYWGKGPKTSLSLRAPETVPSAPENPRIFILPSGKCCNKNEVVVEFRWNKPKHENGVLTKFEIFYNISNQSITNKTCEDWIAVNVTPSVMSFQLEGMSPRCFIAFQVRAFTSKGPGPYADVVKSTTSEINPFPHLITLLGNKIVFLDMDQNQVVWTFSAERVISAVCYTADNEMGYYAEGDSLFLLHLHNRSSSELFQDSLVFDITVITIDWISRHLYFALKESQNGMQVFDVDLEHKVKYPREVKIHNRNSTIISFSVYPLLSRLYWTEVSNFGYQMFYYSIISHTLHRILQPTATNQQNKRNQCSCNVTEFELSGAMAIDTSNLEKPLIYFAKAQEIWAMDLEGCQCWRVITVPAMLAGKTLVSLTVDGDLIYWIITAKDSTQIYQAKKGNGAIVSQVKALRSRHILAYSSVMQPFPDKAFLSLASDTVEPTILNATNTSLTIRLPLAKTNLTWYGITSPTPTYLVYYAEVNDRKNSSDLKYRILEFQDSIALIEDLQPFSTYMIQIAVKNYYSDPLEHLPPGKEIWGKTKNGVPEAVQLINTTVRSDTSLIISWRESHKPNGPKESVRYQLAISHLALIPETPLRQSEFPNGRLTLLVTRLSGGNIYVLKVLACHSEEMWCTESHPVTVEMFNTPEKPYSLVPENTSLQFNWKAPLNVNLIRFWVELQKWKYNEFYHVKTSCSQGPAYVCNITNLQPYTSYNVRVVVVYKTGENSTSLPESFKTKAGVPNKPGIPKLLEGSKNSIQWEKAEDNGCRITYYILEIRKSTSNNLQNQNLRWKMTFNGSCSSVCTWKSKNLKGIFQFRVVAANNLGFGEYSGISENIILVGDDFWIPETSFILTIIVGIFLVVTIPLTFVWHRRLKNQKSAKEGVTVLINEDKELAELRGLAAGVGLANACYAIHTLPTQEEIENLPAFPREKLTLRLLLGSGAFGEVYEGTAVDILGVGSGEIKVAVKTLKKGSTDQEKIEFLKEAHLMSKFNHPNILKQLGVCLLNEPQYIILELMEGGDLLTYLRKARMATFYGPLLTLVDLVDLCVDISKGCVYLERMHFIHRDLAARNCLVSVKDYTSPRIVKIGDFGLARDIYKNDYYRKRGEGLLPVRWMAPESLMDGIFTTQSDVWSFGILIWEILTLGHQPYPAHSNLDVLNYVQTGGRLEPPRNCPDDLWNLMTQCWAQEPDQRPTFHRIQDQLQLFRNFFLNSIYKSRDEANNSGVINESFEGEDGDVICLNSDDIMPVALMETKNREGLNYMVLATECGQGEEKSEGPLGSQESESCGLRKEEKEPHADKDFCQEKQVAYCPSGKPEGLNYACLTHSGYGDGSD
Sequence of MAP2K6 (human) (P52564 whole entry, looked up): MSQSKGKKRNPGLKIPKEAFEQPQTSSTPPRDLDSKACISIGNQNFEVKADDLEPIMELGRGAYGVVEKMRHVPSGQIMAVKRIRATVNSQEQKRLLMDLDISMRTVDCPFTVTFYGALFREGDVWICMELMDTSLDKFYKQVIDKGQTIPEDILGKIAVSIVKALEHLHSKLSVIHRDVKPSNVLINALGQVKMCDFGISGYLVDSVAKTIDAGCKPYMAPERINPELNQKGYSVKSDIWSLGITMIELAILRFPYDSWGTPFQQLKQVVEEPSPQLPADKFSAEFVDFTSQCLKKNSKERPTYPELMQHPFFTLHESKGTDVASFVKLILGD

CN(C)S(=O)(=O)Nc1ccc2ccc3ncc(-c4cnn(C)c4)cc3c(=O)c2c1
residual activity [1]: 93%
residual activity (MAPK3 (human)): 120%
residual activity (RPS6KA3 KD1 KD2 (human)): 76%
residual activity (HIPK1 (human)): 116%
residual activity (FGFR2 (human)): 12%
residual activity (NEK6 (human)): 93%
residual activity [2]: 55%
residual activity (SGK3 (human)): 94%
residual activity (FGFR3 (human)): 4%
residual activity (PRKCE (human)): 103%
residual activity [3]: 35%
residual activity (CHUK (human)): 98%
residual activity (CDK7 CCNH MNAT1 (human)): 101%
residual activity (HIPK3 (human)): 102%
residual activity (TSSK1B (human)): 89%
residual activity (MKNK2 (human)): 33%
residual activity [4]: 109%
residual activity (MAP2K6 (human)): 117%
residual activity (PRKD2 (human)): 109%
residual activity (BMX (human)): 73%
residual activity (BTK (human)): 83%
residual activity [5]: 71%
residual activity (MINK1 (human)): 105%
residual activity (CHEK1 (human)): 98%
residual activity (FGR (human)): 90%
residual activity [6]: 114%
residual activity (LCK (human)): 50%
residual activity (DMPK (human)): 101%
residual activity (PIM1 (human)): 101%
residual activity (SRC (human)): 125%
residual activity (WNK3 (human)): 78%
residual activity (PRKD1 (human)): 93%
residual activity (ERBB4 (human)): 84%
residual activity (CAMK1 (human)): 110%
residual activity (FRK (human)): 104%
residual activity (DAPK1 (human)): 90%
residual activity [7]: 117%
residual activity (CDK5 CDK5R1 p25 (human)): 88%
